The source of these data is paper PMC7284870, “Antimicrobial Peptides from Rat-Tailed Maggots of the Drone Fly Eristalis tenax Show Potent Activity against Multidrug-Resistant Gram-Negative Bacteria” (Microorganisms, 2020).

Series [1] concerns E. coli RKI 6A-6. Nature of the series: microbe, parasite or virus in culture. In kind it is cell-based, Escherichia coli. Put shortly:
(§1)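 Broth microdilution in cation-adjusted Mueller–Hinton broth at 37 °C, with 18 h cultures diluted to 5 × 10^5 cells/mL and final peptide concentrations of 1024–0.03125 µg/mL. Growth was scored visually and by OD600. MIC is the lowest concentration with no growth; medium was optionally supplemented with 150 mM NaCl or 1.25 mM CaCl2.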

In series [2] the test system is Stenotrophomonas maltophilia RKI 136/09. In kind it is cell-based. Put shortly:
as §1

The subject of series [3] is Enterobacter cloacae clinical isolates (23). Nature of the series: MIC, clinical isolates. The format is cell-based. As for the experimental part: (§2) The strains that were used in this study (Table 2 and Table S1) were cultivated at 37 °C in cation-adjusted Mueller–Hinton broth (CAMB) in Erlenmeyer flasks, or on the same medium with agar in Petri dishes. Exceptionally, Mycobacterium smegmatis was cultivated at 37 °C in brain heart infusion (BHI) medium that was supplemented with 1% Tween-80 in Erlenmeyer flasks, or on the same medium lacking detergent but with agar in Petri dishes. Strains listed with Robert Koch Institute (RKI) strain numbers are clinical isolates from the RKI strain collection originating from hospitalized patients in Germany. The remaining strains originated from the Sanofi strain collection and they were originally purchased from the American Type Culture Collection or the German Collection of Microorganisms and Cell Cultures. Meropenem/colistin-resistant strains were maintained, as described above, with the appropriate antibiotic added at levels below the minimal inhibitory concentration (MIC).
(§3) The MIC values were determined in 384-well microtiter plates with an assay volume of 20 µL. Immediately before each assay, the cultures of test organisms (bacteria grown for 18 h, Candida albicans and M. smegmatis grown for 48 h) were diluted with the appropriate medium to a density of 1 × 10^6 cells/mL (C. albicans), 1 × 10^5 cells/mL (M. smegmatis) or 5 × 10^5 cells per mL (other species). […] We transferred 2-µL aliquots from this dilution series to new 384-well microtiter plates while using a CyBio-Well 384-channel automated pipettor (Analytic Jena, Jena, Germany) and added 18 µL of the diluted suspension of each test species using a Viafill reagent dispenser (Integra), thus reducing the final peptide concentration 10-fold to the range 1024–0.03125 µg/mL. […] The growth of M. smegmatis was measured using the BacTiter-Glo luminescence test system (Promega, Madison, WI, USA). The growth of the other species was determined by visual inspection of the microtiter plate and turbidimetry based on the optical density at 600 nm (OD600). The MIC was defined as the peptide concentration at which no bacterial growth was observed. We supplemented the test medium with either 150 mM NaCl or 1.25 mM CaCl2 to represent monovalent and divalent cations to simulate physiological conditions.

For series [4], the system named is P. aeruginosa clinical isolates (2). The format is cell-based, Pseudomonas aeruginosa. As for the experimental part: as §2
as §3, with “The MIC was defined as the peptide concentration at which no bacterial growth was observed. We supplemented the test medium with either 150 mM NaCl or 1.25 mM CaCl2 to represent monovalent and divalent cations to simulate physiological conditions.” left out

The test system of series [5] is Seratia fonticola clinical isolate (1). Nature of the series: MIC, clinical isolates. As to conditions: Table S1, RKI 517/16. The format is cell-based, Serratia fonticola. The protocol: as §2
The MIC values were determined in 384-well microtiter plates with an assay volume of 20 µL. […] The growth of M. smegmatis was measured using the BacTiter-Glo luminescence test system (Promega, Madison, WI, USA). The growth of the other species was determined by visual inspection of the microtiter plate and turbidimetry based on the optical density at 600 nm (OD600). […]

Series [6] has as its system Gram-negative clinical isolates. In kind it is cell-based. Put shortly:
as §1

The test system of series [7] is Canida albicans FH2173. In kind it is cell-based, Candida albicans. As to conditions: CAMB, 24 h, 37 °C, n = 4. Put shortly: as §1
For series [8], the system named is Enterococcus faecium DSM 17050. The format is cell-based. The following applies: CAMB, 18 h, 37 °C, n = 4. Put shortly:
as §1

Series [9] deals with Listeria monocytogenes DSM 20600. In kind it is cell-based. As to conditions: CAMB, 18 h, 37 °C, n = 4. Put shortly:
as §1

The subject of series [10] is Mycobacterium smegmatis ATCC 607. In kind it is cell-based. The following applies: BHI, 48 h, 37 °C, BacTiter-Glo, n = 4.
In series [11] the test system is Proteus mirabilis DSM 4479. The format is cell-based. As to conditions: CAMB, 18 h, 37 °C, n = 4. Put shortly: as §1
The test system of series [12] is Staphylococcus epidermidis ATCC 35984. In kind it is cell-based. As to conditions: CAMB, 18 h, 37 °C, n = 4. Put shortly: as §1
The subject of series [13] is human erythrocytes. Nature of the series: Hemolysis of human erythrocytes. The following applies: hRBC in PBS, 3 h, 37 °C, A540; highest tested 1024 µg/mL. As for the experimental part: Fresh citrated stabilized human whole blood was centrifuged at 500× g for 5 min. and the cell sediment was washed three times with phosphate buffered saline (PBS) before resuspending in PBS (50-fold the initial sample volume) to generate the human red blood cell (hRBC) suspension. The peptides were dissolved in sterile water at a concentration of 10.24 mg/mL and a dilution series was prepared in a 384-well microtiter plate, as above, to achieve the concentration range 10,240–0.3125 µg/mL in a volume of 50 µL. Triton X-100 (positive control) was diluted in sterile water to cover the concentration range 20–0.02%. We transferred 5-µL aliquots to new 384-well microtiter plates using the CyBio-Well 384-channel automated pipettor and added 45 µL of the hRBC suspension while using the Viafill reagent dispenser to achieve the final peptide concentration range 1024–0.031 µg/mL. After incubation at 37 °C. for 3 h, the plate was centrifuged and 20 μL of the supernatant from each well was transferred to a new microtiter plate. The quantity of released hemoglobin was determined by measuring the absorbance at 540 nm using a Lumistar plate reader (BMG Labtech, Ortenberg, Germany). The percent hemolysis was calculated by comparing to a control without peptide (no hemolysis) and a control with 2% Triton X-100 (100% hemolysis).

Values after ≈ are worked out from the molar mass of the structure shown. Where two headings read alike, the source gives them in different places. No end group written: not given here.

On to `C[C@@H](O)[C@H]1C(=O)N2C(C(=O)O)=C(S[C@@H]3CN[C@H](C(=O)N(C)C)C3)[C@H](C)[C@H]12` [MEM, meropenem], for which the MIC is not above 0.5 µg/mL in [1] (Escherichia coli, RKI6A6, Table S1, RKI 6A-6, read-out: MIC); more than 64 µg/mL in [2] (Table S1, RKI 136/09); 4 µg/mL (≈ 10.4 µM) in series [3] (Table S1, RKI 5/14); 8 µg/mL (≈ 20.9 µM) in [3] (Table S1, RKI 33/16); 32 µg/mL (≈ 83.4 µM) in [3] (Table S1, RKI 34/16); not above 0.5 µg/mL in [3] (Table S1, RKI 37/14). Besides, the MIC in [3] (Table S1, RKI 76/15) was not above 0.5 µg/mL; in series [3] (Table S1, RKI 113/16), 2 µg/mL (≈ 5.22 µM); in series [3] (Table S1, RKI 136/15) it was more than 64 µg/mL; in series [3] (Table S1, RKI 141/15), 2 µg/mL (≈ 5.22 µM); in series [3] (Table S1, RKI 210/15), not above 0.5 µg/mL; in series [3] (Table S1, RKI 215/15), not above 0.5 µg/mL. For the same compound, the MIC was not above 0.5 µg/mL in series [3] (Table S1, RKI 243/15); 64 µg/mL (≈ 167 µM) in series [3] (Table S1, RKI 287/13); 8 µg/mL (≈ 20.9 µM) in series [3] (Table S1, RKI 308/13); 1 µg/mL (≈ 2.61 µM) in series [3] (Table S1, RKI 348/15); not above 0.5 µg/mL in series [3] (Table S1, RKI 361/13); 64 µg/mL (≈ 167 µM) in series [3] (Table S1, RKI 460/16). In addition, the MIC in [3] (Table S1, RKI 466/13) was 16 µg/mL (≈ 41.7 µM); in series [3] (Table S1, RKI 506/15) it was 16 µg/mL (≈ 41.7 µM); in [3] (Table S1, RKI 546/13), not above 0.5 µg/mL; in series [3] (Table S1, RKI 571/13), not above 0.5 µg/mL; in [3] (Table S1, RKI 733/14), 64 µg/mL (≈ 167 µM); in series [3] (Table S1, RKI 766/15), not above 0.5 µg/mL. The MIC turned out to be 16 µg/mL (≈ 41.7 µM) in series [4] (Table S1, RKI 93/12); 8 µg/mL (≈ 20.9 µM) in [4] (Table S1, RKI 628/16); 32 µg/mL (≈ 83.4 µM) in [5].
As to “GFLKKIGKKLEGAVQRTRDATIQTIAVAQAAANVAATAKQ-NH2 [EtCec1-NH2]”, the MIC in [6] (18 h) is on record as not below 64 µg/mL; in series [4] (clinical isolates (2, 18 h)) it was 128 µg/mL.
Regarding “GWLRDFGKRIERTGQNIRDATIQTIGIAQEAANVAATLK-NH2 [EtCec2-NH2]”, the MIC in series [7] was more than 1024 µg/mL; in [1] (Table 4, CAMB, n=3) it was 64 µg/mL; in series [8], more than 1024 µg/mL; in series [6] (isolates of M. morganii and S. fonticola) it was more than 128 µg/mL; in series [9], more than 1024 µg/mL; in series [10], more than 1024 µg/mL. The MIC in series [11] is on record as more than 1024 µg/mL; in [12] it was more than 1024 µg/mL; in series [2] (CAMB adjusted to 150 mM NaCl, n=3), 512 µg/mL; in series [2] (Table 4, CAMB, n=3), 256 µg/mL. In [13], this compound displayed a minimal hemolytic concentration of 512 µg/mL.
With “QFNMQGGGSPRQGFDVNANARFPIWQSQNARNSVHGTASYAQHLGGPYGNSRPNFGGGLQFT [EtDip]”, the MIC is more than 1024 µg/mL in series [7]; more than 1024 µg/mL in [8]; more than 1024 µg/mL in [9]; 64 µg/mL in series [10]; more than 1024 µg/mL in series [11]; more than 1024 µg/mL in series [12]. For the same compound, the minimal hemolytic concentration in series [13] is reported as more than 1024 µg/mL.
